According to article PMC10905588 (ACS Omega, 2024):
Read-outs that look alike come from different tables or passages of the source. Marks after values point to notes of the source that are not given here.

What was measured:
[1] = tested on: STZ-induced diabetic rat model; conditions: during the course of 0–300 min; cited from earlier work
[2] = target: T1, α-glucosidase (Saccharomyces cerevisiae, UniProt P53341); conditions: read-out: IC50 α-glucosidase; cited from earlier work
[3] = target: T2, α-amylase (Homo sapiens, UniProt P04746); conditions: read-out: IC50 α-amylase; cited from earlier work
T2 sequence (P04746 16-511): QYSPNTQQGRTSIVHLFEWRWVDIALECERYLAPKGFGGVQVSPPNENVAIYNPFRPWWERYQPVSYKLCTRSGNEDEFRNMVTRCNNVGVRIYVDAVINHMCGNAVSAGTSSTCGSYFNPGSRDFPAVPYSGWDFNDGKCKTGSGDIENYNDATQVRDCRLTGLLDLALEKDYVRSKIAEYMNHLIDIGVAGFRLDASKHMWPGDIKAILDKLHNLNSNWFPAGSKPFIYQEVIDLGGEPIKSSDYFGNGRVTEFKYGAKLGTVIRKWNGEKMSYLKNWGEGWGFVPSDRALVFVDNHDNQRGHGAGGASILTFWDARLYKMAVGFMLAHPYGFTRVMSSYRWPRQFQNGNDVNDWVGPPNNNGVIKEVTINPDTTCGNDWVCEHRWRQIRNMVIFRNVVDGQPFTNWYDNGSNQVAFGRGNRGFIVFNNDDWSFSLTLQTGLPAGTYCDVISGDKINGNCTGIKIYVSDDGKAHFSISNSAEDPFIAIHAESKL

[4] = body weight of STZ-induced diabetic rats; conditions: WA1-WA3 12 mg/kg; mean ± SEM, n = 8
[5] = acute toxicity study; type: in vivo
[6] = tested on: streptozotocin (STZ)-induced diabetic rat model; assay: serum lipid profile in STZ-induced diabetic rats; type: in vivo, Wistar rats; conditions: 28th day, 12 mg/kg oral (glibenclamide 0.5 mg/kg), mean ± SEM, n = 8
[7] = tested on: streptozotocin (STZ)-induced diabetic rat model; assay: blood glucose level in STZ-induced diabetic rats; conditions: WA1-WA3 12 mg/kg oral, glibenclamide 0.5 mg/kg; mean ± SEM, n = 8
[8] = tested on: streptozotocin (STZ)-induced diabetic rat model; assay: kidney and liver function tests in STZ-induced diabetic rats; type: in vivo, Wistar rats; conditions: serum, 28th day; 12 mg/kg oral (glibenclamide 0.5 mg/kg); mean ± SEM, n = 8
[9] = target: T2, α-amylase; assay: in-vitro α-amylase inhibitory activity; type: biochemical
[10] = target: T1, α-glucosidase; assay: in-vitro α-glucosidase inhibitory activity; type: biochemical
[11] = tested on: streptozotocin (STZ)-induced diabetic rat model; assay: glycated hemoglobin; conditions: for HbA1c (%): Table 4: dose printed 6 mg/kg for WA1-WA3, 0.5 mg/kg glibenclamide, n = 8; for HbA1c level: text: WA1, WA2, WA3 at 12 mg/kg, diabetic control 10.12%

T1 sequence (P53341 whole entry): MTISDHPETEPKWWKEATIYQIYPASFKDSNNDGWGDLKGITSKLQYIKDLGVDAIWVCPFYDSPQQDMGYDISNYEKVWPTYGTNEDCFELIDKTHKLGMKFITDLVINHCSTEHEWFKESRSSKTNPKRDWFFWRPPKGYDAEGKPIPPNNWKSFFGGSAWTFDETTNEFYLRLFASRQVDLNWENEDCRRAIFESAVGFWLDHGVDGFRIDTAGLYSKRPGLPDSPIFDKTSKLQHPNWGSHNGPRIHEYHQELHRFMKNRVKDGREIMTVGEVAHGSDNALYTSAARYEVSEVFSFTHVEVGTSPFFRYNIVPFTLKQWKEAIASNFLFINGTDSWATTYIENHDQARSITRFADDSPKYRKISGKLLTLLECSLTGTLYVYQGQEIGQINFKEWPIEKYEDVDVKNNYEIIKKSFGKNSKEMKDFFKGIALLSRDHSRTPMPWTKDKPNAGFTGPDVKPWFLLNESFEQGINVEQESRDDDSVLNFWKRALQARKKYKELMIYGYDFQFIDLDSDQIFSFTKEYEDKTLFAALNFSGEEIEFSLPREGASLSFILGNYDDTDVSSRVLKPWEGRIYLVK

Row | SMILES | lowering of blood glucose levels [1] | body weight, 1st day [4] | body weight, 7th day [4] | body weight, 14th day [4] | body weight, 21st day [4] | body weight, 28th day [4] | HDL [6] [mg/dL] | LDL [6] [mg/dL] | TC (total cholesterol) [6] [mg/dL] | TG (triglycerides) [6] [mg/dL] | blood glucose level, day 1st [7] [mg/dL] | blood glucose level, day 7th [7] [mg/dL] | blood glucose level, day 14th [7] [mg/dL] | blood glucose level, day 21st [7] [mg/dL] | blood glucose level, day 28th [7] [mg/dL] | kidney: creatinine [8] [mg/dL] | kidney: urea [8] [mg/dL] | liver: ALP [8] [U/L] | liver: ALT [8] [U/L] | liver: AST [8] [U/L] | also measured
1 | COc1ccc2c(c1)[nH]c1c3c(c(C)cc12)OC(C)(C)C=C3 [O-methylmurrayamine A] | roughly 24.6% | – | – | – | – | – | – | – | – | – | – | – | – | – | – | – | – | – | – | – | –
2 | CN(C)C(=N)N=C(N)N [metformin, reference compound] | 25.9% | – | – | – | – | – | – | – | – | – | – | – | – | – | – | – | – | – | – | – | –
3 | COc1cc2[nH]c3c4c(c(C)cc3c2cc1OC)OC(C)(C)C=C4 [koenidine] | ~22.5% | – | – | – | – | – | – | – | – | – | – | – | – | – | – | – | – | – | – | – | –
4 | CC(C)=CCCC1(C)C=Cc2c(c(C)cc3c2[nH]c2ccccc23)O1 (stereo not drawn) [mahanimbine] | – | – | – | – | – | – | – | – | – | – | – | – | – | – | – | – | – | – | – | – | IC50 [2]: 299 µM; IC50 [3]: 250 µM
5 | COc1ccc2cc3[n+](cc2c1OC)CCc1cc2c(cc1-3)OCO2 [WA1, berberine] | – | 183.77 ± 5.01 | 180.33 ± 4.91 | 178.16 ± 4.96 | 174.80 ± 4.77 | 170.88 ± 4.84 | 35.11 ± 1.66 | 56.33 ± 2.79 | 92.67 ± 4.81 | 112.17 ± 3.10 | 460.11 ± 5.17 | 376.70 ± 4.98 | 268.21 ± 5.79 | 176.33 ± 4.69 | 133.01 ± 5.18 | 1.07 ± 0.06 | 47.30 ± 1.51 | 145.69 ± 3.78 | 88.30 ± 2.45 | 71.16 ± 1.79 | nontoxic up to (acute toxicity profile) ([5]; oral doses 5-500 mg/kg b.w., observed up to 14 days): up to 500 mg/kg; behavior in acute toxicity profile ([5]; up to 500 mg/kg (b.w.)): normal behavior; IC50 [9]: 200 µM; IC50 [10]: 569 µM; HbA1c (%) [11]: 7.55*** %; HbA1c level [11]: 7.55%
6 | COc1ccc(Cl)cc1C(=O)NCCc1ccc(S(=O)(=O)NC(=O)NC2CCCCC2)cc1 [glibenclamide, reference compound] | – | 184.11 ± 5.15 | 183.91 ± 4.87 | 189.16 ± 5.13 | 187.63 ± 4.86 | 194.37 ± 4.90 | 39.64 ± 1.51 | 40.17 ± 1.80 | 84.31 ± 4.95 | 102.97 ± 3.69 | 458.12 ± 6.15 | 349.36 ± 4.98 | 248.70 ± 6.96 | 138.49 ± 4.86 | 102.19 ± 5.11 | 1.01 ± 0.07 | 40.17 ± 1.90 | 133.67 ± 3.71 | 71.43 ± 2.13 | 55.03 ± 1.94 | HbA1c (%) [11]: 6.91*** %; HbA1c level [11]: 6.91%
